Measurements published in the supplement of paper PMC12317010.
Structures can show the parent of a compound that is named as a salt.

Assay: collision cross section in nitrogen (drift tube, single-field); higher = larger gas-phase ion size
[1] = ion type: [M+Na], ion source: ESI, ion mode: Positive
[2] = ion type: [M-H], ion source: ESI, ion mode: Negative
[3] = ion type: [M+H], ion source: ESI, ion mode: Positive
[4] = ion type: [M+H], ion source: APCI, ion mode: Positive
[5] = ion type: [M+], ion source: APCI, ion mode: Positive
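Further: chemical standards at 10 µM analysed by drift tube IMS-QTOF MS in about 3.95 torr nitrogen, mean of duplicate injections differing ≤1%, mass error below 10 ppm.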

Row | SMILES | collision cross section in nitrogen [1] [Å²] | collision cross section in nitrogen [2] [Å²] | collision cross section in nitrogen [3] [Å²] | collision cross section in nitrogen [4] [Å²] | also measured
1 | COP(N)(=S)Oc1ccccc1C(=O)OC(C)C (stereo not drawn) [Isocarbophos] | 168.6 | – | – | – | –
2 | CCOP(=S)(NC(C)C)Oc1ccccc1C(=O)OC(C)C (stereo not drawn) [Isofenphos] | 184.2 | 173.7 | – | – | –
3 | CC(=O)C(C)=CC1C(C)=CCCC1(C)C (stereo not drawn) [Isomethyl-alpha-ionone] | – | 155 | – | – | –
4 | NNC(=O)c1ccncc1 [Isoniazid] | – | 125.3 | – | – | –
5 | CC(C)CCCCCCCCCCCCCCC(=O)O [Isooctadecanoic acid] | – | 177.8 | – | – | –
6 | CC1(C)CC(N)CC(C)(CN)C1 (stereo not drawn) [Isophorone diamine] | – | – | 142.3 | – | –
7 | NNC(=O)c1cccc(C(=O)NN)c1 [Isophthalyl dihydrazide] | – | 145 | 149.1 | – | –
8 | CCCN(CCC)c1c([N+](=O)[O-])cc(C(C)C)cc1[N+](=O)[O-] [Isopropalin] | – | 175.1 | – | 172.4 | –
9 | CCCCCCCCCCCC(=O)OC(C)C [Isopropyl Laurate] | – | 165.3 | – | – | –
10 | Cc1ccc(C(C)C)cc1O [Isopropyl-o-cresol] | – | 136.9 | – | – | –
11 | CC(C)NCC(O)c1ccc(O)c(O)c1 (stereo not drawn) [Isoproterenol hydrochloride] | – | 151.9 | 151 | – | –
12 | CC(C)c1ccc(NC(=O)N(C)C)cc1 [Isoproturon] | 158.8 | 155.4 | 152.1 | 152.9 | –
13 | c1ccc2cnccc2c1 [Isoquinoline] | – | – | – | 122.3 | –
14 | CS(=O)(=O)c1cc(C(F)(F)F)ccc1C(=O)c1cnoc1C1CC1 [Isoxaflutole] | 185.2 | 175.5 | – | – | –
15 | CC1(C)[C@H](/C=C2\CCSC2=O)[C@@H]1C(=O)OCc1coc(Cc2ccccc2)c1 [Kadethrin] | 192.5 | – | – | – | –
16 | O=c1c(O)c(-c2ccc(O)cc2)oc2cc(O)cc(O)c12 [Kaempferol] | – | 162.2 | 162.8 | 163.2 | –
17 | C[C@H]1O[C@H](O[C@H]2[C@H](O)[C@@H](O)[C@@H](O)[C@H](O)[C@@H]2O)[C@@H](N)C[C@@H]1NC(=N)C(=O)O [Kasugamycin hydrochloride] | – | 178 | 165.9 | – | –
18 | CNC1(c2ccccc2Cl)CCCCC1=O (stereo not drawn) [Ketamine hydrochloride] | 158.8 | – | 149.4 | 149.7 | –
19 | CC(=O)N1CCN(c2ccc(OC[C@H]3CO[C@](Cn4ccnc4)(c4ccc(Cl)cc4Cl)O3)cc2)CC1 [Ketoconazole] | 225.3 | – | 216.8 | 217.3 | –
20 | COc1c2occc2c(OC)c2c(=O)cc(C)oc12 [Khellin] | 167.5 | – | 151.1 | 151.6 | –
21 | c1coc(CNc2[nH]cnc3ncnc2-3)c1 [Kinetin] | 159.2 | 148.4 | 144.4 | 144.3 | –

Row | SMILES | collision cross section in nitrogen [1] [Å²] | collision cross section in nitrogen [2] [Å²] | collision cross section in nitrogen [3] [Å²] | collision cross section in nitrogen [4] [Å²] | also measured
22 | OC[C@@H](O)[C@H](O)[C@@H](O)[C@@H](O)CO [L-Glucitol] | 142.9 | 132.8 | – | – | –
23 | N[C@@H](CCC(=O)O)C(=O)O [L-Glutamic acid hydrochloride] | – | 125.9 | – | – | –
24 | N[C@@H](Cc1ccccc1)C(=O)O [L-Phenylalanine] | – | 140.8 | – | – | –
25 | CC(CCc1ccccc1)NCC(O)c1ccc(O)c(C(N)=O)c1 (stereo not drawn) [Labetalol hydrochloride] | 176.8 | – | 175.2 | 175.7 | –
26 | CCOC(=O)C(C)OC(=O)c1cc(Oc2ccc(C(F)(F)F)cc2Cl)ccc1[N+](=O)[O-] (stereo not drawn) [Lactofen] | 212.7 | 196 | – | – | –
27 | CCCCCCCCCCCCN1CCCCCC1=O [Laurocapram] | 185.4 | – | 184.7 | 185.5 | –
28 | CCCCCCCCCCCCOC(=O)c1cc(O)c(O)c(O)c1 [Lauryl gallate] | – | 183.1 | – | – | –
29 | CCCCCCCCCCCCN(CCO)CCO [Lauryldiethanolamine] | 180.3 | – | 184.1 | 183.7 | –
30 | Cc1ccnc2ccccc12 [Lepidine] | – | – | 125.4 | 126.3 | collision cross section in nitrogen [5]: 125.4 Å²
31 | CN(C)c1ccc(C(c2ccccc2)c2ccc(N(C)C)cc2)cc1 [Leucomalachite green] | – | – | 198.9 | 199.9 | –
32 | c1ccc([C@H]2CN3CCSC3=N2)cc1 [Levamisole hydrochloride] | 155.8 | – | 144.8 | 144.2 | –
33 | N[C@@H](Cc1ccc(O)c(O)c1)C(=O)O [Levodopa] | – | 141.6 | – | – | –
34 | N[C@@H](Cc1cc(I)c(Oc2cc(I)c(O)c(I)c2)c(I)c1)C(=O)O [Levothyroxine] | – | – | 213.4 | – | –
35 | C=CC(C)(CCC=C(C)C)OC(C)=O (stereo not drawn) [Linalyl acetate] | – | 152 | – | – | –
36 | CCCCC/C=C\C/C=C\CCCCCCCC(=O)O [Linoleic acid] | – | 175.2 | – | – | –
37 | CON(C)C(=O)Nc1ccc(Cl)c(Cl)c1 [Linuron] | – | 151.1 | – | – | –
38 | O=C(O)c1cc(C(=O)O)cc(S(=O)(=O)O)c1 [Lithium 3-carboxy-5-sulfobenzoate] | – | 147.3 | – | – | –
39 | O=S(=O)(NS(=O)(=O)C(F)(F)F)C(F)(F)F [Lithium bis[(trifluoromethyl)sulfonyl]azanide] | – | 129.9 | – | – | –
40 | O=S(=O)(O)C(F)(F)C(F)(F)C(F)(F)C(F)(F)C(F)(F)C(F)(F)C(F)(F)C(F)(F)F [Lithium perfluorooctanesulfonate] | – | 168.3 | – | – | –
41 | C[C@H](CCC(=O)O)[C@H]1CC[C@H]2[C@@H]3CC[C@@H]4C[C@H](O)CC[C@]4(C)[C@H]3CC[C@]12C [Lithocholic acid] | – | 203 | – | – | –
42 | CCOC(=O)N1CCC(=C2c3ccc(Cl)cc3CCc3cccnc32)CC1 [Loratadine] | 195.1 | – | 187.4 | 187.9 | –

Row | SMILES | collision cross section in nitrogen [1] [Å²] | collision cross section in nitrogen [2] [Å²] | collision cross section in nitrogen [3] [Å²] | collision cross section in nitrogen [4] [Å²] | also measured
43 | CCCCc1nc(Cl)c(CO)n1Cc1ccc(-c2ccccc2-c2nnn[nH]2)cc1 [Losartan potassium] | 204.9 | 203.4 | 201.2 | 201.6 | –
44 | CC[C@H](C)C(=O)O[C@H]1C[C@@H](C)C=C2C=C[C@H](C)[C@H](CC[C@@H]3C[C@@H](O)CC(=O)O3)[C@H]21 [Lovastatin] | 203.9 | – | – | – | –
45 | O=C(NC(=O)c1c(F)cccc1F)Nc1cc(Cl)c(OC(F)(F)C(F)C(F)(F)F)cc1Cl (stereo not drawn) [Lufenuron] | – | 205.4 | – | – | –
46 | CCCCc1ccc2c(n1)[C@@H](c1ccc(OC)cc1C[C@H](C)C(=O)O)[C@H](C(=O)O)[C@H]2c1ccc2c(c1)OCO2 [MK-547] | 234.1 | 236.4 | 230.9 | 231 | –
47 | CCn1nc(Cc2ccccc2)cc1C1CCN(C[C@H]2C[C@H](N(C)[C@@H](C(=O)O)C(C)C)C[C@@H]2c2cccc(F)c2)CC1 [MK-578] | 241.9 | 247.7 | 243.4 | 243.1 | –
48 | CO[C@@H]1COCC[C@@H]1N[C@@H]1CC[C@@](C(=O)N2CCc3ncc(C(F)(F)F)cc3C2)(C(C)C)C1 [MK-812] | 219.6 | 207.8 | 214.6 | – | –
49 | Fc1ccccc1[C@@H](F)CO[C@H]1CC[C@H](Nc2[nH]cnc3nncc2-3)CC1 [MK-968] | 191.4 | 198.9 | 187.7 | 187.8 | –
50 | O=[N+]([O-])O [Magnesium dinitrate hexahydrate] | – | 104.1 | – | – | –
51 | CN(C)c1ccc(C(=C2C=CC(=[N+](C)C)C=C2)c2ccccc2)cc1 [Malachite green] | – | – | – | – | collision cross section in nitrogen (ion source: APCI, ion mode: Positive, ion type: [M]+ (permanent cation)): 188.5 Å²; collision cross section in nitrogen (ion source: ESI, ion mode: Positive, ion type: [M]+ (permanent cation)): 188.9 Å²
52 | CCOC(=O)CC(SP(=O)(OC)OC)C(=O)OCC (stereo not drawn) [Malaoxon] | 165.7 | – | – | – | –
53 | CCOC(=O)CC(SP(=S)(OC)OC)C(=O)OCC (stereo not drawn) [Malathion] | 172.2 | – | – | – | –
54 | O=c1ccc(=O)[nH][nH]1 [Maleic hydrazide] | – | 117.8 | – | – | –
55 | O=C(O)CC(O)C(=O)O (stereo not drawn) [Malic acid] | – | 116.9 | – | – | –
56 | Cc1occc(=O)c1O [Maltol] | – | – | – | 119.5 | –
57 | CNCCCC12CCC(c3ccccc31)c1ccccc12 [Maprotiline hydrochloride] | – | – | 164.3 | 164.1 | –
58 | CC(=O)O[C@]1(C(C)=O)CC[C@H]2[C@@H]3C[C@H](C)C4=CC(=O)CC[C@]4(C)[C@H]3CC[C@@]21C [Medroxyprogesterone acetate] | 212.7 | – | – | – | –
59 | Cc1cccc(Nc2ccccc2C(=O)O)c1C [Mefenamic acid] | – | 160.9 | – | – | collision cross section in nitrogen [5]: 152.3 Å²
60 | CCOC(=O)C1=NN(c2ccc(Cl)cc2Cl)C(C)(C(=O)OCC)C1 (stereo not drawn) [Mefenpyr-diethyl] | 194.8 | – | – | – | –
61 | COc1ccc2[nH]cc(CCNC(C)=O)c2c1 [Melatonin] | 156.9 | 156 | 153.3 | 153.7 | –
62 | C=C1C[C@H]2[C@@H]3C=C(C)C4=CC(=O)CC[C@]4(C)[C@H]3CC[C@]2(C)[C@@]1(OC(C)=O)C(C)=O [Melengestrol acetate] | – | – | 200.3 | 201.5 | –
